Data: PMC10893631, “Receptor-based pharmacophore modeling, molecular docking, synthesis and biological evaluation of novel VEGFR-2, FGFR-1, and BRAF multi-kinase inhibitors” (BMC Chemistry, 2024)

Legend:
Assay in all cases: NCI SRB growth inhibition (single dose 10 µM / five-dose)
Type in all cases: cell-based, human
BT-549 = conditions: Homo sapiens
How it was run: (§1)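 Seeding varied with cell doubling time (5000–40,000 cells/well). Dilutions were 10-fold or ½ log, five levels in total. Sulforhodamine B staining (0.4% w/v, 10 min, room temperature) of TCA-fixed cells measured growth.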

EKVX = conditions: Homo sapiens
How it was run: as §1

NCI-H23 = conditions: Homo sapiens
How it was run: as §1

NCI-H522 = conditions: Homo sapiens
How it was run: as §1

SF-268 = conditions: Homo sapiens
How it was run: as §1

MDA-MB-468 = conditions: Homo sapiens
How it was run: as §1

786–0 = conditions: Homo sapiens
How it was run: as §1

MDA-MB-231/ATCC = conditions: Homo sapiens
How it was run: as §1

UACC-257 = conditions: Homo sapiens
How it was run: as §1

HT29 = conditions: Homo sapiens, HT-29
How it was run: as §1

NCI-H226 = conditions: Homo sapiens
How it was run: as §1

KM12 = conditions: Homo sapiens
How it was run: as §1

COLO 205 = conditions: Homo sapiens
How it was run: as §1

SK-MEL-2 = conditions: Homo sapiens; SK-MEL-2 (Melanoma), 10 µM; read-out: GI%
How it was run: as §1

SN12C = conditions: Homo sapiens; SN12C, Renal cancer; five-dose
How it was run: as §1

RPMI-8226 = conditions: Homo sapiens
How it was run: as §1

TK-10 = conditions: Homo sapiens
How it was run: as §1

NCI/ADR-RES = conditions: Homo sapiens
How it was run: as §1

SK-MEL-5 = conditions: Homo sapiens
How it was run: as §1

SR = conditions: Homo sapiens
How it was run: as §1

HOP-62 = conditions: Homo sapiens
How it was run: as §1

K-562 = conditions: Homo sapiens, K562
How it was run: as §1

IGROV1 = conditions: Homo sapiens, IGROV-1
How it was run: as §1

ACHN = conditions: Homo sapiens
How it was run: as §1

SNB-75 = conditions: Homo sapiens; SNB-75 (CNS cancer), 10 µM; read-out: GI%
How it was run: as §1

SNB-19 = conditions: Homo sapiens
How it was run: as §1

COc1cccc(C=NNC(=O)c2ccc3[nH]c(-c4ccc(Cl)cc4)nc3c2)c1O [8r, 2-(4-Chlorophenyl)-N'-(2-hydroxy-3-methoxybenzylidene)-1H-benzo[d]imidazole-5-carbohydrazide]
inhibition at 10 µM (BT-549; BT-549 (Breast cancer), 10 µM, read-out: GI%): > 100% | GI50 (BT-549; BT-549, Breast cancer, five-dose): 1360 nM | inhibition at 10 µM (EKVX; EKVX (Non-small cell lung cancer), 10 µM, read-out: GI%): > 100% | GI50 (EKVX; EKVX, Non-small cell lung cancer, five-dose): 4560 nM | inhibition at 10 µM (NCI-H23; NCI-H23 (Non-small cell lung cancer), 10 µM, read-out: GI%): > 100% | GI50 (NCI-H23; NCI-H23, Non-small cell lung cancer, five-dose): 1150 nM | inhibition at 10 µM (NCI-H522; NCI-H522 (Non-small cell lung cancer), 10 µM, read-out: GI%): > 100% | GI50 (NCI-H522; NCI-H522, Non-small cell lung cancer, five-dose): 1170 nM | inhibition at 10 µM (SF-268; SF-268 (CNS cancer), 10 µM, read-out: GI%): > 100% | GI50 (SF-268; SF-268, CNS cancer, five-dose): 1210 nM | inhibition at 10 µM (MDA-MB-468; MDA-MB-468 (Breast cancer), 10 µM, read-out: GI%): > 100% | GI50 (MDA-MB-468; MDA-MB-468, Breast cancer, five-dose): 1440 nM | inhibition at 10 µM (786–0; 786–0 (Renal cancer), 10 µM, read-out: GI%): > 100% | GI50 (786–0; 786–0, Renal cancer, five-dose): 1490 nM | inhibition at 10 µM (MDA-MB-231/ATCC; MDA-MB-231/ATCC (Breast cancer), 10 µM, read-out: GI%): > 100% | GI50 (MDA-MB-231/ATCC; MDA-MB-231/ATCC, Breast cancer, five-dose): 1820 nM | inhibition at 10 µM (UACC-257; UACC-257 (Melanoma), 10 µM, read-out: GI%): > 100% | GI50 (UACC-257; UACC-257, Melanoma, five-dose): 2350 nM | inhibition at 10 µM (HT29; HT29 (Colon cancer), 10 µM, read-out: GI%): > 100% | GI50 (HT29; HT29, Colon cancer, five-dose): 4170 nM | inhibition at 10 µM (NCI-H226; NCI-H226 (Non-small cell lung cancer), 10 µM, read-out: GI%): > 100% | GI50 (NCI-H226; NCI-H226, Non-small cell lung cancer, five-dose): 1650 nM | inhibition at 10 µM (KM12; KM12 (Colon cancer), 10 µM, read-out: GI%): > 100% | GI50 (KM12; KM12, Colon cancer, five-dose): 1660 nM | inhibition at 10 µM (COLO 205; COLO 205 (Colon cancer), 10 µM, read-out: GI%): > 100% | GI50 (COLO 205; COLO 205, Colon cancer, five-dose): 2330 nM | inhibition at 10 µM (SK-MEL-2): > 100% | GI50 (SN12C): 1720 nM | inhibition at 10 µM (RPMI-8226; RPMI-8226 (Leukemia), 10 µM, read-out: GI%): > 100% | GI50 (RPMI-8226; RPMI-8226, Leukemia, five-dose): 2220 nM | inhibition at 10 µM (TK-10; TK-10 (Renal cancer), 10 µM, read-out: GI%): > 100% | GI50 (TK-10; TK-10, Renal cancer, five-dose): 6460 nM | inhibition at 10 µM (NCI/ADR-RES; NCI/ADR-RES (Ovarian cancer), 10 µM, read-out: GI%): 49.3% | GI50 (NCI/ADR-RES; NCI/ADR-RES, Ovarian cancer, five-dose): > 100000 nM | inhibition at 10 µM (SK-MEL-5; SK-MEL-5 (Melanoma), 10 µM, read-out: GI%): > 100% | GI50 (SK-MEL-5; SK-MEL-5, Melanoma, five-dose): 1340 nM | inhibition at 10 µM (SR; SR (Leukemia), 10 µM, read-out: GI%): > 100% | GI50 (SR; SR, Leukemia, five-dose): 500 nM | inhibition at 10 µM (HOP-62; HOP-62 (Non-small cell lung cancer), 10 µM, read-out: GI%): > 100% | GI50 (HOP-62; HOP-62, Non-small cell lung cancer, five-dose): 1040 nM | inhibition at 10 µM (K-562; K-562 (Leukemia), 10 µM, read-out: GI%): > 100% | GI50 (K-562; K-562, Leukemia, five-dose): 490 nM | inhibition at 10 µM (IGROV1; IGROV1 (Ovarian cancer), 10 µM, read-out: GI%): > 100% | GI50 (IGROV1; IGROV1, Ovarian cancer, five-dose): 1250 nM | inhibition at 10 µM (ACHN; ACHN (Renal cancer), 10 µM, read-out: GI%): > 100% | GI50 (ACHN; ACHN, Renal cancer, five-dose): 2920 nM | inhibition at 10 µM (SNB-75): > 100% | inhibition at 10 µM (SNB-19; SNB-19 (CNS cancer), 10 µM, read-out: GI%): > 100% | GI50 (SNB-19; SNB-19, CNS cancer, five-dose): 1310 nM
